In publication PMC10447463, “Data-mining unveils structure–property–activity correlation of viral infectivity enhancing self-assembling peptides” (Nature Communications, 2023):
Read-outs that look alike come from different tables or passages of the source.

Tests used:
[1] = Aggregate analysis by widefield fluorescence microscopy; type: physicochemical
Outline: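 First, each peptide (1 mg/mL in PBS, from DMSO stock) incubates 1 d at room temperature; next, it is mixed with 50 µM ThT to 0.1 mg/mL; finally, widefield images at 10x (ex 480/40, em 527/30 nm) are analysed by object counting for particles exceeding 10 µm^2, in triplicate.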

[2] = Conversion rate (CR) assay with fluorescamine; type: physicochemical
Outline: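 1 mg/mL PNF solutions lyophilized and powders measured by diamond ATR FT-IR (2 cm^-1 resolution, 64 scans); β-sheet content calculated per a prior method. For CR, PNF solution centrifuged through 3 kDa MWCO filter (16200 x g, 4 °C, 45 min); filtrate and unfiltered sample lyophilized, dissolved in DMSO, reacted with fluorescamine.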

[3] = Fig S8 panels A, C, 3 fields of 1330 µm x 1330 µm
[4] = Fig S8 panels B, D, average aggregate area, 3 fields of 1330 µm x 1330 µm
[5] = Fig S8 panels B, D, median aggregate area, 3 fields of 1330 µm x 1330 µm
[6] = Fig S8 panels B, D, 3 fields of 1330 µm x 1330 µm
[7] = Fig S8 panels B, D, widefield fluorescence microscopy, 3 fields of 1330 µm x 1330 µm

Substance | Avg Area in 3 *(1330 µm *1330 µm) ([1]; Fig S8 panels A, C) | Log 10 Number of aggregates in 3 * (1330 µm *1330 µm) ([1]; Fig S8 panels A, C) | Median Area in 3 * (1330 µm *1330 µm) ([1]; Fig S8 panels A, C) | log Avg Area in 3 * ( (1330 µm *1330 µm)) ([1]; Fig S8 panels A, C) | log Median Area in 3 * ( (1330 µm *1330 µm)) ([1]; Fig S8 panels A, C) | log Total Area of all particles in 3 * (1330 µm *1330 µm) ([1]; Fig S8 panels A, C) | Number of aggregates in 3 * (1330 µm *1330 µm) [1, 3] | Avg Area in 3 *(1330 µm *1330 µm) [1, 4] | Median Area in 3 * (1330 µm *1330 µm) [1, 5] | Total Area of all particles in 3 * (1330 µm *1330 µm) [1, 6] | Number of aggregates in 3 * (1330 µm *1330 µm) [1, 7] | Conversion Rate / % ([2]; fluorescamine assay) [%] | Conversion Rate / % [2] [%]
CKFKQFFNM [CK14] | 31.08 | 2.848 | 15.21 | 1.4925 | 1.182 | 4.34 | 704 | 31.08 | 15.21 | 21881.13867 | 704 |  | 
KWKWQW [KB3] | 112 | 1.442 | 41.405 | 2.049 | 1.617 | 3.491 | 27.67 | 112 | 41.405 | 3098 | 27.67 |  | 
CEFEFQFNMWQ [TM140] |  |  |  |  |  |  |  |  |  |  |  | 98.63 | 
CKIKIQI [MG3b] | 58.72 | 2.501 | 16.48 | 1.7688 | 1.2169 | 4.27 | 317 | 58.72 | 16.48 | 18614.711 | 317 |  | 
KIKQII [msis21] |  |  |  |  |  |  |  |  |  |  |  | 19.94 | 19.94
KIKIQI [JJA4] |  |  |  |  |  |  |  |  |  |  |  | 32.82 | 32.82
QCKAKAQANMWQ [CK22] |  |  |  |  |  |  |  |  |  |  |  | 89.28 | 89.28
QCKAKAQA [CK24] |  |  |  |  |  |  |  | 0 | 0 | 0 | 0 |  | 
CRFRFQF [CN10] |  |  |  |  |  |  |  |  |  |  |  | 98.13 | 
CQFQFQF [QBL4] | 73.07 | 1.6596 | 15.07 | 1.864 | 1.178 | 3.523 | 45.67 | 73.07 | 15.07 | 3337 | 45.67 |  | 
